Measurements reported in PMC5084761, “Crisaborole Topical Ointment, 2% in Patients Ages 2 to 17 Years with Atopic Dermatitis: A Phase 1b, Open‐Label, Maximal‐Use Systemic Exposure Study” (Pediatric Dermatology, 2016).
Read-outs that look alike come from different tables or passages of the source.

Tests used:
[1] = Plasma pharmacokinetics after topical application of crisaborole topical ointment, 2% BID under maximal-use conditions (HPLC tandem mass spectrometry, noncompartmental); conditions: for Cmax: 3 mg/cm^2, C max
From the text: (§1) This was a phase 1b, multicenter, open‐label, maximal‐use study of crisaborole topical ointment, 2% applied twice daily (BID). The study included a PK and safety phase (dose application in clinic from day 1 through the morning dose on day 9) and a non‐PK safety phase (at‐home dose application from the evening dose on day 9 through day 28). […] The primary objective was to evaluate the systemic exposure, PK, and safety of crisaborole topical ointment, 2% when applied under maximal‐use conditions in children and adolescents 2 to 17 years of age.
(§2) Crisaborole topical ointment, 2% was applied BID to all treatable AD‐affected areas at an intended dose of 3 mg/cm^2. The per‐application dosage was calculated in grams at baseline for each patient based on total body surface area (BSA) and treatable percentage of BSA (percentage of AD‐involved skin excluding scalp and venous access areas). During the PK phase, the per‐application dosage remained fixed at the baseline level and was applied BID, with the evening application occurring 8 to 12 hours after the morning application.
(§3) The primary study endpoints were PK and safety of crisaborole topical ointment, 2% under maximal‐use conditions. PK profiles were developed for crisaborole and its major oxidative metabolites AN7602 and AN8323 based on plasma samples obtained on days 1 and 8. Calculated PK parameters included area under the curve (AUC), maximum plasma concentration (C max), time to C max (T max), and terminal half‐life (t 1/2), assessed on days 1 and 8.
(§4) Plasma PK samples were evaluated for crisaborole, AN7602, and AN8323 using a validated high‐performance liquid chromatography tandem mass spectrometry assay and analyzed using analysis of variance (ANOVA). Descriptive PK parameters were determined using standard noncompartmental methods based on concentration‐versus‐time curves for each patient.
(§5) If no statistically significant differences were observed using this model, the PK analysis was performed for all study patients.

[2] = system: children and adolescents with mild to moderate AD; assay: Efficacy: ISGA, treatment success, AD signs and symptoms, treatable percentage of BSA; assay type: in vivo, human (patients ages 2 to 17 years); conditions: for Percentage change from baseline in treatable percentage of BSA, mean ± SD: after 4 wks
Method: Secondary assessments included treatment success, defined as an Investigator Static Global Assessment (ISGA) score of 1 or less (clear or almost clear) with a two‐grade improvement or more from baseline. The proportion of patients achieving an ISGA of 0 (clear) or 1 (almost clear) was also assessed. Improvement from baseline in AD signs and symptoms of erythema, excoriation, exudation, lichenification, and pruritus was evaluated using a 4‐point scale ranging from 0 (none) to 3 (severe). Efficacy assessments were conducted at baseline and days 5, 8, 15, 22, and 29. Change from baseline in treatable percentage of BSA was assessed at day 29 and included all AD lesions identified at baseline.

[3] = in vivo
From the text: as §1, §2, §3, §4, §5

**Q.** For `N#Cc1ccc(Oc2ccc3c(c2)COB3O)cc1` [Crisaborole, crisaborole], which Tmax ([1]; human, plasma, topical, 3 mg/cm^2) is on record?
**A.** Its Tmax is 3 h.

**Q.** And the AUC(0-t) ([1]; human, plasma, topical, 3 mg/cm^2, AUC0–12, mean ± SD, plasma, day 1, all patients (n = 32))?
**A.** The AUC(0-t) was 759 ± 730 ng·h/mL.

**Q.** What about the AUC(0-t) ([1]; human, plasma, topical, 3 mg/cm^2, AUC0–12, mean ± SD, plasma, day 8, all patients (n = 32)) of the same compound?
**A.** The AUC(0-t) was 949 ± 1240 ng·h/mL.

**Q.** What about the AUC(0-t) ([1]; human, plasma, topical, 3 mg/cm^2, AUC0–24, mean ± SD, plasma, day 1, all patients (n = 29)) of the same compound?
**A.** Its AUC(0-t) is 833 ± 694 ng·h/mL.

**Q.** And the AUC(0-t) ([1]; human, plasma, topical, 3 mg/cm^2, AUC0–24, mean ± SD, plasma, day 8, all patients (n = 32))?
**A.** Its AUC(0-t) is 1320 ± 1330 ng·h/mL.

**Q.** And the AUC(0-t) ([1]; human, plasma, topical, 3 mg/cm^2, AUC0–T, mean ± SD, plasma, day 1, all patients (n = 34))?
**A.** The AUC(0-t) was 863 ± 759 ng·h/mL.

**Q.** What about the AUC(0-t) ([1]; human, plasma, topical, 3 mg/cm^2, AUC0–T, mean ± SD, plasma, day 8, all patients (n = 33)) of the same compound?
**A.** The AUC(0-t) was 1320 ± 1310 ng·h/mL.

**Q.** And the Cmax ([1]; human, plasma, topical, mean ± SD, plasma, day 1, all patients (n = 34))?
**A.** Its Cmax is 111 ± 113 ng/mL.

**Q.** And the Cmax ([1]; human, plasma, topical, mean ± SD, plasma, day 8, all patients (n = 33))?
**A.** The Cmax was 127 ± 196 ng/mL.

**Q.** And the “systemic exposure (in words)” value ([1]; maximal-use conditions, increased with treatable percentage of BSA)?
**A.** Its value is “minimal”.

**Q.** And the “systemic accumulation in plasma (in words)” value ([1]; over 8 days of dosing)?
**A.** Its value is “minimal systemic accumulation”.

**Q.** And the “time by which steady state was reached” value ([1]; plasma, BID dosing)?
**A.** The value was ≤ 8 days.

**Q.** And the “T max, median (range)” value ([1]; plasma, day 1, all patients (n = 34), ointment 2% at 3 mg/cm^2)?
**A.** Its value is 3.00 (3–12) hours.

**Q.** What about the “Percentage change from baseline in treatable percentage of BSA, mean ± SD” value (“Percentage change from baseline … mean ± SD” below) ([2]; cohort 1) of the same compound?
**A.** Its value is −86.6 ± 18.6 percentage.

**Q.** And the “Percentage change from baseline … mean ± SD” value ([2]; cohort 2)?
**A.** Its value is −72.8 ± 24.4 percentage.

**Q.** What about the “Percentage change from baseline … mean ± SD” value ([2]; cohort 3) of the same compound?
**A.** Its value is −73.0 ± 21.7 percentage.

**Q.** And the “Percentage change from baseline … mean ± SD” value ([2]; total (N = 34))?
**A.** The value was −77.7 ± 22.1 percentage.

**Q.** And the “Day 29 treatable percentage of BSA, mean ± SD (range)” value ([2]; cohort 1, ages 12–17 yrs (n = 12), baseline 35.8 ± 11.3)?
**A.** Its value is 5.7 ± 8.6 (0–29) percentage of BSA.

**Q.** What about the “Day 29 treatable percentage of BSA, mean ± SD (range)” value ([2]; cohort 2, ages 6–11 yrs (n = 12), baseline 54.9 ± 19.3) of the same compound?
**A.** The value was 16.3 ± 14.5 (0–40) percentage of BSA.

**Q.** What about the “Day 29 treatable percentage of BSA, mean ± SD (range)” value ([2]; cohort 3, ages 2–5 yrs (n = 10), baseline 56.9 ± 23.0) of the same compound?
**A.** Its value is 18.6 ± 18.1 (0–46) percentage of BSA.

**Q.** And the “reduction of the mean percentage of skin with AD lesions” value ([2]; overall, as summarised in discussion)?
**A.** Its value is ~ 75%.

**Q.** What about the “Day 29 treatable percentage of BSA, mean ± SD (range)” value ([2]; total (N = 34), baseline 48.7 ± 20.2) of the same compound?
**A.** Its value is 13.2 ± 14.7 (0–46) percentage of BSA.

**Q.** For `N#Cc1ccc(Oc2ccc(O)c(CO)c2)cc1` [AN7602], which “systemic exposure (in words)” value [3] is on record?
**A.** Its value is “minimal”.
